Patent US20110020448A1, “PHARMACEUTICAL COMPOSITION FOR THE TREATMENT AND PREVENTION OF GLAUCOMA” (MAZENCE, INC., priority 2007, published 2011)

Columns and labels:
retinal ganglion cells = assay: Viability of retinal ganglion cells (RGCs) in TTT laser optic nerve injury (glaucoma) model; format: in vivo, C57BL/6 mice; details: TTT laser model mice, rodent chow containing 50 mg/kg, fed 2 weeks; RGCs labeled day 13, counted 24 h later; FIG. 1
Procedure: (§1) Group 3: Experimental group (n=7) fed with a rodent chow containing 50 mg/kg of a pharmaceutical composition including compound 1 of experimental example 1 as an active ingredient, as a glaucoma model.
(§2) 8-week-old C57BL/6 mice were anesthetized with an intraperitoneal injection of a mixture of ketamine (100 mg/kg) and xylazine (5 mg/kg), and a mydriatic agent was applied to dilate the pupils of the eyes. Thereafter, an application of transpupillary thermotherapy (TTT), 200 spot size, 50-mW power, and 30-sec duration, was performed over the optic disc of an eye. The aiming beam of the laser was focused on the centre of the optic disc, a viscoelastic material was instilled, a cover glass was placed, and laser beams were irradiated while confirming the optic disc through the dilated pupils by naked eyes. The thus-established optic nerve injury model will be hereinafter referred to as a TTT laser model. […]
Twenty-four hours after labeling, the animals were euthanized and the eyes were enucleated and fixed for 2 hours with neutral formalin. […] Under a fluorescence microscope (×400), the fluorescently labeled retinal ganglion cells were counted in 12 regions in the four quadrants of each retina approximately 0.5 mm, 1 mm and 1.5 mm from the edge of the optic disc. […]

axons of the optic nerve = assay: Axonal viability (Bodian staining) in TTT laser optic nerve injury (glaucoma) model; format: in vivo, C57BL/6 mice; details: TTT laser model mice, rodent chow containing 50 mg/kg; day 14 after laser irradiation; FIG. 2
Procedure: as §1, §2
The retinal cross-section and the optic nerve cross-section were treated with a silver solution for 48 hours, and color development was carried out using a reducing agent, followed by toning and fixation. […] In order to evaluate the axonal viability, the stained axons were counted with a light microscope (×1000), in 20 regions at intervals of 10 in the four quadrants of each retina, from the center of the optic nerve tissue section slide. […]

Compound: CC1(C)CCC2=C(O1)c1ccccc1C(=O)C2=O [Compound 1, β-lapachone]
- density of retinal ganglion cells relative to the TTT control group (Group 2) (retinal ganglion cells): ≥ 1.7 fold
- axonal density relative to the TTT control group (Group 2) (axons of the optic nerve): ≥ 1.5 fold
